Experimental data: US20070066608A1, “Novel indole derivatives with an improved antipsychotic activity” (priority 2003, published 2007)

Biological target: T1, human 5HT transporter (Homo sapiens, UniProt P31645)
T1 construct: host or cells: HEK cells
Test: Binding experiment for 5-HT transporter, [3H]Paroxetine
Conditions: 5HT transporter-transfected HEK cells, [3H]Paroxetine binding; read-out: pIC50 5HT reuptake inhibition (converted)
Experimental: (§1) The interaction of the compounds of Formula (I) with dopamine-receptors, h5HT-transporter and h5HT1A receptor was assessed in in vitro radioligand binding experiments. In general, a low concentration of a radioligand with a high binding affinity for a particular receptor or transporter is incubated with a sample of a tissue preparation enriched in a particular receptor or transporter or with a preparation of cells expressing cloned human receptors in a buffered medium. During the incubation, the radioligand binds to the receptor or transporter. When equilibrium of binding is reached, the receptor bound radioactivity is separated from the non-bound radioactivity, and the receptor- or transporter-bound activity is counted The interaction of the test compounds with the receptor is assessed in competition binding experiments. Various concentrations of the test compound are added to the incubation mixture containing the receptor- or transporter preparation and the radioligand. The test compound in proportion to its binding affinity and its concentration inhibits binding of the radioligand.
Frozen human 5HT transporter-transfected HEK cells (Perkin Elmer, Brussels) were thawed and briefly homogenised using an Ultra-Turrax T25 homogeniser prior to dilution to an appropriate protein concentration optimised for specific and non-specific binding. [^3H]Paroxetine (NEN, specific activity 20 Ci/mmol) was diluted in Tris-HCl assay buffer containing NaCl and KCl (50 mM 120 mM and 5 mM, respectively; pH 7.4) at a concentration of 5 nmol/L. Prepared radioligand (25 μl) was then incubated (60 min, 25° C.) with membrane preparations (200 μl) and with 25 μl of either 10% DMSO control, Imipramine (10^−6 mol/L final concentration), or compound of interest Membrane-bound activity was detected by filtration through a Packard Filtermate harvester onto Unifilterplates pre-soaked in 0.1% PEI, washing with ice-cold assay buffer (3×4 ml). Filters were dried prior to addition of scintillation fluid and then counting in a Topcount scintillation counter. % Specific bound and competition binding curves were calculated using S-Plus software (Insightful).

T1 sequence (P31645 whole entry): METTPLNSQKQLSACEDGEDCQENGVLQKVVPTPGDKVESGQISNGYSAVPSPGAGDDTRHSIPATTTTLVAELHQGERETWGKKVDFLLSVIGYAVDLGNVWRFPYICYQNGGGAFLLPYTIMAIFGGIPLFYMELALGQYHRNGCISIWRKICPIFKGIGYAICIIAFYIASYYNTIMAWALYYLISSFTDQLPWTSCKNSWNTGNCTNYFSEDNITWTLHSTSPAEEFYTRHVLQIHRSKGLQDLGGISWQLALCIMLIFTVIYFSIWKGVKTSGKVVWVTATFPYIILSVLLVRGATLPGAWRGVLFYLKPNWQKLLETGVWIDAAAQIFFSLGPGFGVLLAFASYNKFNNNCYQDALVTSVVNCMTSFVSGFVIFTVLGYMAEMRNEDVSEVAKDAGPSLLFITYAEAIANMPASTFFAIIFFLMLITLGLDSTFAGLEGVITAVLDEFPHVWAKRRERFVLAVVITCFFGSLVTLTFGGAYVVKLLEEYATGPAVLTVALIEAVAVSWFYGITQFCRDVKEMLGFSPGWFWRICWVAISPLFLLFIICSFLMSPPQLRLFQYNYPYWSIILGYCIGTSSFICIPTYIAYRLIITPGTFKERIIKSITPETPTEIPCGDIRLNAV

Which IC50 does the source give for Brc1ccc2[nH]cc(C3=CCN(CC4COc5ccncc5O4)CC3)c2c1 (stereo not shown) [Compound 13] here?
Its IC50 is 100 nM.

Which IC50 does the source give for Oc1ccc2[nH]cc(C3CCN(CC4COc5ccncc5O4)CC3)c2c1 (stereo not shown) [Compound 19] here?
The IC50 was 316 nM.

Fc1cccc2c(C3=CCN(CC4COc5ccncc5O4)CC3)c[nH]c12 (stereo not shown) [Compound 17] was tested. Which IC50 did it give?
Its IC50 is 50.1 nM.

For Clc1ccc2[nH]cc(C3CCN(CC4COc5ccncc5O4)CC3)c2c1 (stereo not shown) [Compound 18], which IC50 is on record?
The IC50 was 200 nM.

For O=[N+]([O-])c1ccc2[nH]cc(C3=CCN(CC4COc5ccncc5O4)CC3)c2c1 (single isomer, unassigned) [Compound 15], which IC50 is on record?
The IC50 was 10 nM.

For Fc1ccc2c(C3CCN(CC4COc5ccncc5O4)CC3)c[nH]c2c1 (stereo not shown) [Compound 23], which IC50 is on record?
The IC50 was 251 nM.

N#Cc1ccc2[nH]cc(C3CCN(CC4COc5ccncc5O4)CC3)c2c1 (racemic) [Compound 20] was tested. Which IC50 did it give?
The IC50 was 39.8 nM.

For Fc1ccc2[nH]cc(CC3CCN(CC4COc5ccncc5O4)CC3)c2c1 (stereo not shown) [Compound 25], which IC50 is on record?
The IC50 was 63.1 nM.

Fc1cccc2c(C3CCN(CC4COc5ccncc5O4)CC3)c[nH]c12 (stereo not shown) [Compound 24] was tested. Which IC50 did it give?
Its IC50 is 316 nM.

Fc1cccc2[nH]cc(C3=CCN(CC4COc5ccncc5O4)CC3)c12 (stereo not shown) [Compound 12] was tested. Which IC50 did it give?
The IC50 was 100 nM.

For O=[N+]([O-])c1ccc2[nH]cc(C3=CCN(CC4COc5ccncc5O4)CC3)c2c1 (single isomer, unassigned) [Compound 16], which IC50 is on record?
Its IC50 is 251 nM.

Biological target: T2, Human Dopamine D2L receptor (Homo sapiens, UniProt P14416)
T2 construct: expressed in transfected cells; host or cells: CHO cells
Test: Radioligand binding experiment for dopamine D2 receptor (hD2), [3H]Spiperone
Conditions: membranes of D2L receptor-transfected CHO cells, read-out: pIC50 D2 (converted)
Experimental: as §1
Human Dopamine D2L receptor-transfected CHO cells were collected by scraping into ice-cold Tris-HCl buffer ([…], pH 7.4). The suspension was centrifuged (23 500×g, 10 min, 4° C.) and pellets stored at −70° C. until require. They were then thawed and briefly homogenised using an Ultra-Turrax T25 homogeniser prior to dilution to an appropriate protein concentration optimised for specific and non-specific binding. [^3H]Spiperone (NEN, specific activity˜70 Ci/mmol) was diluted in Tris-HCl assay buffer containing NaCl, CaCl2, MgCl2, KCI (50, 120, 2, 1, and 5 mM respectively, adjusted to pH 7.7 with HCl) at a concentration of 2 nmol/L. Prepared radioligand (50 μl) was then incubated (30 min, 37° C.) with membrane preparations pre-diluted to an appropriate protein concentration (400 μl), and with 50 μl of either the 10% DMSO control, Butaclamol (10^−6 mol/L final concentration), or compound of interest. Membrane-bound activity was detected by filtration through a Packard Filtermate harvester onto Unifilterplates, washing with ice-old Tris-HCl buffer (50 mM; pH8.0; 3×4 ml). Filters were allowed to dry before adding scintillation fluid and counting in a Topcount scintillation counter. % Specific bound and competition binding curves were calculated using S-Plus software (Insightful).

T2 sequence (P14416 whole entry): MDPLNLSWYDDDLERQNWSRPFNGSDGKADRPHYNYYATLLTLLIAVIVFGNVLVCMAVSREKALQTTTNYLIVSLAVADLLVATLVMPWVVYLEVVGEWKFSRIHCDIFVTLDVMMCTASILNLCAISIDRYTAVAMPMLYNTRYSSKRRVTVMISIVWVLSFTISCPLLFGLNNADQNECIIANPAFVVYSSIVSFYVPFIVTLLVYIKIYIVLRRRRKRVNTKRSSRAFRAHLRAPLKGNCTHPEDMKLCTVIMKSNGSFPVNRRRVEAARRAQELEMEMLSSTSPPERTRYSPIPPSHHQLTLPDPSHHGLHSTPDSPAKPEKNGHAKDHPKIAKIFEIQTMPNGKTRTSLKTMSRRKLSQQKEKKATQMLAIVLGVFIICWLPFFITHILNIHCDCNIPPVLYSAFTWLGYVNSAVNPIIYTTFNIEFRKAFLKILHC

For Brc1ccc2[nH]cc(C3=CCN(CC4COc5ccncc5O4)CC3)c2c1 (stereo not shown) [Compound 13], which IC50 is on record?
The IC50 was 158 nM.

For Oc1ccc2[nH]cc(C3CCN(CC4COc5ccncc5O4)CC3)c2c1 (stereo not shown) [Compound 19], which IC50 is on record?
Its IC50 is 63.1 nM.

For Fc1cccc2c(C3=CCN(CC4COc5ccncc5O4)CC3)c[nH]c12 (stereo not shown) [Compound 17], which IC50 is on record?
The IC50 was 126 nM.

How did the IC50 turn out when Clc1ccc2[nH]cc(C3CCN(CC4COc5ccncc5O4)CC3)c2c1 (stereo not shown) [Compound 18] was run?
The IC50 was 31.6 nM.

O=[N+]([O-])c1ccc2[nH]cc(C3=CCN(CC4COc5ccncc5O4)CC3)c2c1 (single isomer, unassigned) [Compound 15] was tested. Which IC50 did it give?
Its IC50 is 200 nM.

Which IC50 does the source give for Fc1ccc2c(C3CCN(CC4COc5ccncc5O4)CC3)c[nH]c2c1 (stereo not shown) [Compound 23] here?
Its IC50 is 25.1 nM.

How did the IC50 turn out when N#Cc1ccc2[nH]cc(C3CCN(CC4COc5ccncc5O4)CC3)c2c1 (racemic) [Compound 20] was run?
Its IC50 is 63.1 nM.

With Fc1ccc2[nH]cc(CC3CCN(CC4COc5ccncc5O4)CC3)c2c1 (stereo not shown) [Compound 25] as the compound, how does the IC50 read?
Its IC50 is 794 nM.

Fc1cccc2c(C3CCN(CC4COc5ccncc5O4)CC3)c[nH]c12 (stereo not shown) [Compound 24] was tested. Which IC50 did it give?
Its IC50 is 25.1 nM.

For O=[N+]([O-])c1ccc2[nH]cc(C3=CCN(CC4COc5ccncc5O4)CC3)c2c1 (single isomer, unassigned) [Compound 16], which IC50 is on record?
The IC50 was 316 nM.

Biological target: T3, Human Dopamine D3 receptor (Homo sapiens, UniProt P35462)
T3 construct: expressed in transfected cells; host or cells: CHO cells
Test: Radioligand binding experiment for dopamine D3 receptor (hD3), [125I]Iodosulpride
Conditions: membranes of D3 receptor-transfected CHO cells, read-out: pIC50 D3 (converted)
Experimental: as §1
Human Dopamine D3 receptor-transfected CHO cells were collected by scraping into ice-cold Tris-HCl buffer (50 mM, pH 7.4). The suspension was centrifuged (23 500×g, 10 min, 4° C.) and pellets stored at −70° C. until required. They were then thawed and briefly homogenised using an Ultra-Turrax T25 homogeniser prior to dilution to an appropriate protein concentration optimised for specific and non-specific binding. [^125]Iodosulpride (Amersham, specific activity 2000 Ci/mmol) was diluted in Tris-HCl assay buffer containing NaCl, CaCl2, MgCl2, KCl and BSA (50, 120, 2, 1, 5 mM, 0.1% respectively, adjusted to pH 7.7 with HCl) at a concentration of 2 nmol/L. Prepared radioligand (20 μl) was incubated (60 min, RT) and with 20 μl of either the 10% DMSO control, Risperidone (10^−6 mol/L final concentration), or compound of interest, then with membrane preparations (80 μl). Overnight incubation followed after addition of WGA-coated PVT SPA beads (250 μl; Amersham) and membrane-bound counts measured in a Wallac Microbeta. % Specific bound and competition binding curves were calculated using S-Plus software (Insightful).

T3 sequence (P35462 whole entry): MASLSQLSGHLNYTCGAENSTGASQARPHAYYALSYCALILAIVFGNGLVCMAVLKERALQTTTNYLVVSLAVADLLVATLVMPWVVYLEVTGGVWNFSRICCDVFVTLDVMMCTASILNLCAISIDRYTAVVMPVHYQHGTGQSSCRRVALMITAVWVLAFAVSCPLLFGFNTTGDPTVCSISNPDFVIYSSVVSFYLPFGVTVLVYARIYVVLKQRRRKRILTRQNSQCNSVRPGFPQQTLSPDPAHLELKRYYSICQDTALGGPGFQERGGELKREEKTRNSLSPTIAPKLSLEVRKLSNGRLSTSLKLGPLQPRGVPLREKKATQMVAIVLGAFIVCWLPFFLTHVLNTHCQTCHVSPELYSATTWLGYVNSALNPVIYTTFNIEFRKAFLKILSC

How did the IC50 turn out when Fc1cccc2[nH]cc(C3=CCN(CC4COc5ccncc5O4)CC3)c12 (stereo not shown) [Compound 12] was run?
Its IC50 is 158 nM.
